Reference: patent US6878736B1, “Histamine H3 receptor ligands” (James Black Foundation Limited, priority 1998, dated 2005)
Structures can show the parent of a compound that is named as a salt.

How the values were obtained:
Histamine H3 receptor [1] = molecular target: T1, Histamine H3 receptor (Cavia porcellus, UniProt Q9JI35); experiment: Histamine H3 radioligand binding assay, guinea pig cortex ([3H]-R-α-methylhistamine); conditions: guinea pig cortex membranes, competition with 1 nM [3H]-R-α-methylhistamine; for Ki: read-out: pKi (Guinea pig cortex) (converted)
T1 sequence (Q9JI35 whole entry): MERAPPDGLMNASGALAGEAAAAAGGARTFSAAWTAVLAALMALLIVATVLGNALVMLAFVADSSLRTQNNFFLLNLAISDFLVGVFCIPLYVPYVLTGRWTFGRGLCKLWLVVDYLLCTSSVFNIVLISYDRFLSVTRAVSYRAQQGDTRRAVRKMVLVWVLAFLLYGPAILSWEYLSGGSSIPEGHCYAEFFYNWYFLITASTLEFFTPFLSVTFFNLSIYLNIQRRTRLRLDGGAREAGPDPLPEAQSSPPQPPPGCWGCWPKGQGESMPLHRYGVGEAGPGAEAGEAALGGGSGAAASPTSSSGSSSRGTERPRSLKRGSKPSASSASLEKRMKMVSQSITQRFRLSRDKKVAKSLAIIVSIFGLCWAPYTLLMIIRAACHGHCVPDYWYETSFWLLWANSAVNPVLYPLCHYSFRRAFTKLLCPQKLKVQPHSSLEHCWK
Experimental: The compounds of the invention were also tested in a guinea pig cortex binding assay, as follows:
Histamine H3 Radioligand Binding Assay—Guinea Pig Cortex
Male Dunkin Hartley guinea pigs (200-300 g) were used. The whole brain was removed and immediately placed in ice-cold 20 mM Hepes-NaOH buffer (pH7.4 at 21±3° C.). The cortex was dissected, weighed and homogenised in ice-cold 20 mM Hepes-NaOH buffer (pH7.4 at 21±3° C.) (50 ml/guinea-pig cortex) using a polytron (Kinematica AG; PT-DA 3020/2TS, 3×3 s). The homogenate was centrifuged at 100×g for 5 min and the supernatants pooled and stored at 4° C. The pellets were rehomogenised in fresh ice-cold buffer (80 ml) and recentrifuged (100×g for 5 min). The supernatants were pooled and pellets rehomogenised and recentrifuged (100×g for 5 min). All supernatants were pooled and centrifuged at 39,800×g for 12 min at 4° C. The final pellet was resuspended in 20 mM Hepes-NaOH buffer (pH7.4 at 21±3° C.) to a tissue concentration of 7.5 mg.ml^−1, using a teflon-in-glass homogeniser.
Guinea pig cortex membranes (400 μl) were incubated for 165 min at 21±3° C. in a final volume of 500 μl with 20 mM Hepes-NaOH buffer containing [^3H]-R-α-methylhistamine (50 μl; 1 nM) and competing compound. Total and non-specific binding of [^3H]-R-α-methylhistamine were defined using 50 μl of buffer and 50 μl of 10 μM thioperamide, respectively. The assay was terminated by rapid filtration through Whatman GF/B filters, presoaked (2 hr) in 0.1% polyethyleneimine, using a Brandell Cell Harvester. The filters were washed (3×3 ml) with ice-cold 50 mM Tris-HCl (pH6.9 at 21±3° C.), transferred into scintillation vials, 5 ml liquid scintillation cocktail was added and after 4 hours the bound radioactivity was determined by counting (4 min) in a Beckman liquid scintillation counter.
Data are analysed using GraphPad prism and the general equation for a competition curve with variable Hill slope (nH). [formula] where • X is the log concentration of competing compound, • Y is the binding obtained at each concentration of X, • pIC50 is the concentration of the competitor required to compete for half of the specific binding.
The IC50 is converted to the K1 using the Cheng Prusoff equation, K1=IC50/(1+(L/KD)) where • IC50 is the concentration of competitor required to compete for half the specific binding, • L is the radioligand concentration used, • KD is the equilibrium dissociation constant for the radioligand determined by saturation experiments.

Histamine H3 receptor [2] = molecular target: T1, Histamine H3 receptor; experiment: Histamine H3 functional assay, guinea pig ileum (ileal longitudinal muscle, myenteric plexus); set-up: species or system tissue; conditions: antagonist affinity from rightward shift of R-(α)-methylhistamine E/[A] curves (Schild); typical variance ±0.15 log units; read-out: pKb (Guinea pig ileum) (converted)
Experimental: • 1. J. Med. Chem 1994, 314. • 2. WO 97/29092 Histamine H3 Functional Assay—Guinea Pig Ileum
The biological activity of the compounds of the examples was measured using the ileal longitudinal muscle, myenteric plexus assay described by Paton and Aboo Zar (J. Physiol. 1968, 194, 13-33). Male Dunkin-Hartley guinea pigs (250-300 g) were employed. Briefly, a 50 cm portion of ileum proximal to the caecum was removed, after discarding the terminal 20 cm. Ileal segments (3 cm) were cleaned by passing Krebs-Henseleit buffer containing 3 μM mepyramine gently through the ileum using a Pasteur pipette (size: 13.8 cm length, 0.65 cm diameter). To avoid unnecessary damage to the tissue, Krebs-Henseleit buffer was passed through the ileal segment, while it was lying horizontally on a petri dish. Therefore, the ileum was not over-distended and the buffer flowed through with ease. Each segment was then passed over a Pasteur pipette and the longitudinal muscle layer and adhering myenteric plexus was teased away using moist cotton wool, by stroking tangentially away from the mesenteric attachment. The tissues were suspended in 20 ml organ baths containing Krebs-Henseleit buffer at 37±1° C. and gassed with […]. The tissues were ligated to two parallel stainless steel wires, situated between two platinum electrodes (0.76 cm length, 0.06 cm diameter). All measurements were recorded isometrically (Grass FTO3 transducer). Following an initial loading tension of 1 g, the tissues were stimulated with electrical pulses at a frequency of 0.1 Hz and a pulse duration of 0.5 msec, as described by Kosterlitz & Watt (Br. J. Pharmacol. 1968, 266276). Initially, the tissues were stimulated at supramaximal (1.3 fold times maximal) voltage for a period of 30 min and then the tissues were washed and re-stimulated. A “sighter dose” of the selective histamine H3-receptor agonist, R-(α)-methylhistamine (0.3 μM) (Arrang et al. Nature, 1987, 117-123), was administered. Upon generation of response, the “sighter dose” was removed from the tissues by “washout” (6 washes over 60 min) and during this period the electrical stimulation was switched off. The tissues were then re-stimulated and allowed to stabilise prior to the addition of drug treatments, which were allocated on a randomised block basis to the organ baths. Following the incubation period, a single cumulative E/[A] curve was obtained. The experimental E/[A] curve data was expressed as the percentage inhibition of the peak height of electrically-stimulated contraction. Antagonist affinity values were calculated from the degree of rightward shift of the R-(α)-methylhistamine E/[A] curves using Schild's methods (Arunlakshana & Schild Br. J. Pharmacol. 1959, 48-58). Typical variance in this assay is ±0.15 log units.

| SMILES | Ki (Histamine H3 receptor [1]) [nM] | further results |
| --- | --- | --- |
| CN1CCC[C@H]1CCCN(CCO)S(=O)(=O)NCc1ccc(Cl)cc1 [Example 124, N-(4-Chlorobenzyl)-N′-(2-hydroxyethyl)-N′-(3-(1-methyl-pyrrolidin-2S-yl)propyl)-sulfamide] | 1260 | – |
| N=C(N)N(CCCCCCCCN1CCCC1)Cc1ccc(Cl)cc1 [Example 79, N-(4-Chlorobenzyl)-N-(8-pyrrolidin-1-yl-octyl)-guanidine bis-hydrochloride] | – | Kb (Histamine H3 receptor [2]): 7.94 nM |
| CN1CCCC1CCNS(=O)(=O)c1cccc2ccccc12 (stereo not shown) [Example 94, N-(2-(1-Methyl-pyrrolidin-2-yl)-ethyl)-1-naphthalenesulfonamide] | 2510 | – |
| CN1CCCCC1CCNS(=O)(=O)c1ccc2ccccc2c1 (stereo not shown) [Example 90, N-(2-(1-Methyl-piperidin-2-yl)-ethyl)-2-naphthalenesulfonamide] | 1260 | – |
| N=C(NCCCCCN1CCCC1)NCc1ccc(C2CCCCC2)cc1 [Example 57, N-(4-Cyclohexylbenzyl)-N′-(5-pyrrolidin-1-yl-pentyl)-guanidine bis-hydrochloride] | 20 | – |
| CN1CCC[C@H]1CCCN(CC(=O)NCc1ccc(Cl)cc1)S(=O)(=O)NCc1ccc(Cl)cc1 [Example 129, N-(4-Chlorobenzyl)-N′-(4-chlorobenzylamidomethyl)-N′-(3-(1-methyl-pyrrolidin-2S-yl)propyl)-sulfamide] | 794 | – |
| CN1CCN(CCCCNS(=O)(=O)c2ccc3ccccc3c2)CC1 [Example 85, N-(4-(4-Methyl-piperazin-1-yl)-butyl)-2-naphthalenesulfonamide] | 158 | – |
| CN1CCC(CCCNS(=O)(=O)c2ccc3ccccc3c2)CC1 [Example 93, N-(3-(1-Methyl-piperidin-4-yl)-propyl)-2-naphthalenesulfonamide] | 3160 | – |
| Cl.Cl.N=C(NCCCN1CCCC1)NCC1CCCCC1 [Example 39, N-Cyclohexyl-methyl-N′-(3-pyrrolidin-1-yl-propyl)-guanidine bis-hydrochloride] | – | pKi (Guinea pig cortex) (Histamine H3 receptor [1]): 7.4 |
| CN1CCCC(CCCNS(=O)(=O)c2ccc3ccccc3c2)C1 (stereo not shown) [Example 92, N-(3-(1-Methyl-piperidin-3-yl)-propyl)-2-naphthalenesulfonamide] | 2000 | – |
| CN(C)C(=O)CN(CCC[C@@H]1CCCN1C)S(=O)(=O)NCc1ccc(Cl)cc1 [Example 128, N-(4-Chlorobenzyl)-N′-(dimethylamidomethyl)-N′-(3-(1-methyl-pyrrolidin-2S-yl)propyl)-sulfamide] | 3160 | – |
| CC(C)CN1CCC[C@H]1CCCNS(=O)(=O)Cc1ccc(Cl)cc1 [Example 143] | 794 | – |
| Cc1ccc(S(=O)(=O)NCCC2CCCN2C)cc1 (stereo not shown) [Example 95, N-(2-(1-Methyl-pyrrolidin-2-yl)ethyl)4-toluenesulfonamide] | 1580 | – |
| [O-][S+](NCCCN1CCCC1)c1ccc2ccccc2c1 (stereo not shown) [Example 87, N-(3-Pyrrolidin-1-yl-propyl)-2-naphthalenesulfinamide] | 1260 | – |
| CN1CCCC1CCCCS(=O)(=O)NCC1CCCCC1 (stereo not drawn) [Example 137, N-Cyclohexyl-methyl-4-(1-methyl-pyrrolidin-2S-yl)-butanesulfonamide] | 2510 | – |
| O=S(=O)(NCCC[C@@H]1CCCN1CCCc1ccc(Cl)cc1)NCc1ccc(Cl)cc1 [Example 118] | 1580 | – |

| SMILES | Ki (Histamine H3 receptor [1]) [nM] | further results |
| --- | --- | --- |
| CN(CCN1CCCC1)S(=O)(=O)c1ccc2ccccc2c1 [Example 86, N-(2-Pyrrolidin-1-yl-ethyl)-N-methyl-2-naphthalenesulfonamide] | 2510 | – |
| CN1CCC[C@H]1CCCNS(=O)(=O)NCc1ccccc1 [Example 108, N-Benzyl-N′-(3-(1-methyl-pyrrolidin-2S-yl)-propyl)-sulfamide] | 1580 | – |
| CN1CCC[C@H]1CCCNS(=O)(=O)NCCc1ccc(Cl)cc1 [Example 111, N-(2-(4-Chlorophenyl)-ethyl)-N′-(3-(1-methyl-pyrrolidin-2S-yl)-propyl)-sulfamide] | 1580 | – |
| CN1CCCC1CCCCS(=O)(=O)NCC12CC3CC(CC(C3)C1)C2 (stereo not drawn) [Example 138, N-Adamantan-1-yl-methyl-4-(1-methyl-pyrrolidin-2S-yl)-butanesulfonamide] | 1260 | – |
| CN1CCC[C@H]1CCNS(=O)(=O)Cc1ccc(Cl)cc1 [Example 97, N-(2-(1-Methyl-pyrrolidin-2S-yl)-ethyl)-(4-chlorophenyl)-methanesulfonamide] | 1580 | – |
| CN1CCCC1CCNS(=O)(=O)c1ccc(Cl)cc1 (stereo not shown) [Example 96, N-(2-(1-Methyl-pyrrolidin-2-yl)-ethyl)-4-chlorophenylsulfonamide] | 1580 | – |
| COC(=O)CN(CCC[C@@H]1CCCN1C)S(=O)(=O)NCc1ccc(Cl)cc1 [Example 123, N-(4-Chlorobenyl)-N′-(methoxycarbonylmethyl)-N′-(3-(1-methyl-pyrrolidin-2S-yl)propyl)-sulfamide] | 251 | – |
| O=S(=O)(NCCN1CCCC1)NCc1ccc(Cl)cc1 [Example 134, N-(4-Chlorobenzyl)-N′-(2-pyrrolidin-1-yl-ethyl)-sulfamide] | 1000 | – |
| CN1CCC[C@H]1CCCN(CC(=O)OCc1ccccc1)S(=O)(=O)NCc1ccc(Cl)cc1 [Example 130, N-(4-Chlorobenzyl)-N′-(benyloxycarbonylmethyl)-N′-(3-(1-methyl-pyrrolidin-2S-yl)propyl)-sulfamide] | 5010 | – |
| CN1CCCC1CCNC(=N)NCc1ccc(Cl)cc1 (stereo not shown) [Example 27, N-(4-Chlorobenzyl)-N′-(2-(1-methyl-pyrrolidin-2-yl)-ethyl)-guanidine bis-hydrochloride] | 158 | – |
| CN1CCCC1CCCCCNS(=O)(=O)NCc1ccc(Cl)cc1 (stereo not drawn) [Example 117, N-(4-Chlorobenzyl)-N′-(5-(1-methyl-pyrrolidin-2S-yl)-pentyl)-sulfamide] | 79.4 | – |
| CN1CCC[C@@H]1CCCNS(=O)(=O)NCc1ccc(Cl)cc1 [Example 109, N-(4-Chlorobenzyl)-N′-(3-(1-methyl-pyrrolidin-2R-yl)-propyl)-sulfamide] | 200 | – |
| CN1CCC[C@H]1CCCN(CCCN)S(=O)(=O)NCc1ccc(Cl)cc1 [Example 126, N-(4-Chlorobenzyl)-N′-(3-amino-propyl)-N′-(3-(1-methyl-pyrrolidin-2S-yl)propyl)-sulfamide] | 1000 | – |
| N=C(NCCc1ccc(Cl)cc1)NCCN1CCCC1 [Example 23, N-(2-(4-Chlorophenyl)ethyl)-N′-(2-pyrrolidin-1-yl-ethyl)-guanidine bis-hydrochloride] | 316 | – |
| N=C(NCCCN1CCOCC1)NCc1ccc(Cl)cc1 [Example 15, N-(4-Chlorobenzyl)-N′-(3-morpholin-4-yl-propyl)-guanidine bis-hydrochloride] | 794 | – |
